Measured values published in ChEMBL document CHEMBL1124848, “Monomethyl ether derivatives of 7,8-dihydroxy- and 8,9-dihydroxy-4-n-propyl-1,2,3,4,4a,5,6,10b-octahydrobenzo[f]quinolines as possible products of metabolism by catechol-O-methyltransferase” (1990).

How the values were obtained:
[1] = Evaluated for its effect in the cat cardioaccelerator nerve assay at the dose of 0.0013 umol/kg; assay type: functional; settings: Felis catus
[2] = Evaluated for its effect in the cat cardioaccelerator nerve assay at the dose of 300 ug/kg; assay type: functional; settings: Felis catus

| Compound | inhibition in vivo at 0.0013 µmol/kg [1] [%] | inhibition in vivo at 0.3 mg/kg [2] [%] |
| --- | --- | --- |
| CCCN1CCC[C@H]2c3cc(O)c(O)cc3CC[C@@H]21 | 50 | – |
| CCCN1CCC[C@H]2c3cc(OC)c(O)cc3CC[C@@H]21 | – | 50 |
